Data as given in patent publication US20170253562A1, “Nampt Inhibitors” (AbbVie Inc., priority 2011, published 2017).

Target: recombinant, human, C-terminally-His tagged NAMPT (Homo sapiens, UniProt P43490)
Experiment: Time-Resolved Fluorescence Resonance Energy Transfer (TR-FRET) binding assay of NAMPT
Conditions: 6.8 nM NAMPT, 200 nM probe (Oregon Green 488-conjugated APO866), 2-3 hours
Description: Time-Resolved Fluorescence Resonance Energy Transfer (TR-FRET) Binding Assay of NAMPT
Plates were read with Envision (Laser Lantha low volume protocol) after 2 to 3 hours.

recombinant, human, C-terminally-His tagged NAMPT, sequence (P43490 whole entry): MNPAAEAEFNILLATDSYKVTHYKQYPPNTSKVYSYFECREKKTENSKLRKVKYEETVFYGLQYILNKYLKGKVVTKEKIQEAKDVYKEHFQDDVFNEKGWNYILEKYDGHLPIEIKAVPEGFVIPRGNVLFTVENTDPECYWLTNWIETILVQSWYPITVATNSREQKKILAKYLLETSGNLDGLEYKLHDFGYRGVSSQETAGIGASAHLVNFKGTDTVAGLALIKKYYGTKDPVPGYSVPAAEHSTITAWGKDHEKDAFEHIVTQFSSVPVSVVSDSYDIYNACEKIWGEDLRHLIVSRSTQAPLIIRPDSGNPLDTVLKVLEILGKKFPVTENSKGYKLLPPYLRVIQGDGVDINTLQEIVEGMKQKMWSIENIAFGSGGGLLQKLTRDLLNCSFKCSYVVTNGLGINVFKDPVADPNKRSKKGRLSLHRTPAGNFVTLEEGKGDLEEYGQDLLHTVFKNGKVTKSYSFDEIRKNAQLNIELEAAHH

Row | Structure (SMILES) | IC50
1 | O=C(NCC1CCC2(CCNCC2)O1)c1ccc(NC(=O)N2Cc3ccccc3C2)nn1 (stereo not shown) [Example 32, N-{6-[(1-oxa-8-azaspiro[4.5]dec-2-ylmethyl)carbamoyl]pyridazin-3-yl}-1,3-dihydro-2H-isoindole-2-carboxamide] | 782 nM
2 | O=C(Nc1ccc(C(=O)N2CCOC3(CCOC3)C2)nn1)N1Cc2ccccc2C1 (stereo not shown) [Example 12, N-[6-(2,6-dioxa-9-azaspiro[4.5]dec-9-ylcarbonyl)pyridazin-3-yl]-1,3-dihydro-2H-isoindole-2-carboxamide] | 2050 nM
3 | O=C(NCC1CC12CCNCC2)c1ccc(NC(=O)N2Cc3ccccc3C2)nn1 (stereo not shown) [Example 40, N-{6-[(6-azaspiro[2.5]oct-1-ylmethyl)carbamoyl]pyridazin-3-yl}-1,3-dihydro-2H-isoindole-2-carboxamide] | 648 nM
4 | O=C(Nc1ccc(C(=O)N2CCCC3(COC3)C2)nn1)N1Cc2ccccc2C1 [Example 14, N-[6-(2-oxa-6-azaspiro[3.5]non-6-ylcarbonyl)pyridazin-3-yl]-1,3-dihydro-2H-isoindole-2-carboxamide] | 885 nM
5 | O=C(NC1CCC12CNC2)c1ccc(NC(=O)N2Cc3ccccc3C2)nn1 (stereo not shown) [Example 25, N-[6-(2-azaspiro[3.3]hept-5-ylcarbamoyl)pyridazin-3-yl]-1,3-dihydro-2H-isoindole-2-carboxamide] | 2880 nM
6 | O=C(NCC1COC2(CCNCC2)C1)c1ccc(NC(=O)N2Cc3ccccc3C2)nn1 (stereo not shown) [Example 33, N-{6-[(1-oxa-8-azaspiro[4.5]dec-3-ylmethyl)carbamoyl]pyridazin-3-yl}-1,3-dihydro-2H-isoindole-2-carboxamide] | 284 nM
7 | O=C(NCC1(F)CCNCC1)c1ccc(NC(=O)N2Cc3ccccc3C2)nn1 [Example 43, N-(6-{[(4-fluoropiperidin-4-yl)methyl]carbamoyl}pyridazin-3-yl)-1,3-dihydro-2H-isoindole-2-carboxamide] | 2880 nM

The next compounds have a lower IC50 than those just listed; values first:

Row | IC50 | Structure (SMILES)
8 | 253 nM | O=C(NCC1CCC2(CCNCC2)CO1)c1ccc(NC(=O)N2Cc3ccccc3C2)nn1 (stereo not shown) [Example 31, N-{6-[(2-oxa-9-azaspiro[5.5]undec-3-ylmethyl)carbamoyl]pyridazin-3-yl}-1,3-dihydro-2H-isoindole-2-carboxamide]
9 | 218 nM | O=C(Nc1ccc(C(=O)N2CCC3(CC2)CNC3)nn1)N1Cc2ccccc2C1 [Example 34, N-[6-(2,7-diazaspiro[3.5]non-7-ylcarbonyl)pyridazin-3-yl]-1,3-dihydro-2H-isoindole-2-carboxamide]
10 | 6.92 nM | CC1(CNC(=O)c2ccc(NC(=O)N3Cc4ccccc4C3)cc2)CCCO1 (stereo not shown) [Example 5, N-(4-{[(2-methyltetrahydrofuran-2-yl)methyl]carbamoyl}phenyl)-1,3-dihydro-2H-isoindole-2-carboxamide]
